Reference: article PMC8161373, “New Cardenolides from Biotransformation of Gitoxigenin by the Endophytic Fungus Alternaria eureka 1E1BL1: Characterization and Cytotoxic Activities” (Molecules, 2021)
≈ marks a conversion by molar mass, not a printed value. Read-outs that look alike come from different tables or passages of the source.

Tests used:
[1] = test system: A549 human lung cancer cell line; experiment: MTT cell viability assay, A549; type: cell-based; settings: 48 h treatment, n = 3
Protocol: (§1) Cytotoxicity of the metabolites and substrate were evaluated in various cancer cell lines (pancreatic: PANC-1, MIA PaCa-2; prostate: DU 145 and lung: A549) and two healthy cell lines (lung: MRC-5 and kidney: HEK-293) by MTT cell viability assay (Table 3).
(§2) To see cytotoxic effects of the obtained metabolites, a standard MTT (3-(4,5-dimethylthiazol-2-yl)-2,5-diphenyltetrazolium bromide) cell viability assay was performed on human cancer cell lines PANC-1 (pancreatic, ATCC® CRL-1469™), MIA PaCa-2 (pancreatic, ATCC® CRL-1420™), DU 145 (prostate, ATCC® HTB-81™) and A549 (lung, ATCC® CCL-185™) and two healthy cell lines MRC-5 (lung, ATCC® CCL-171™) and HEK-293 (kidney, ATCC® CRL-1573™) according to manufacturer’s instructions (M2128, Sigma-Aldrich®). For this purpose, cells at 80–90% confluency were seeded to 96-well plates as 5-10x10^3 cells/well in Eagle Minimal Essential Medium (EMEM) or Dulbecco Modified Eagle Medium (DMEM); supplemented with 10% FBS and 1% L-glutamine depending on the cell type and incubated in a humidified incubator at 37 °C with 5% CO2 atmosphere for 24 h. After cell adhesion, gitoxigenin and the metabolites were applied to the cells in triplicate with concentrations ranging between 0.001 and 10 µM. After 48 h exposure to certain concentrations of the compounds, medium was replaced with fresh one containing 10% MTT and plates were incubated for 3 h in the dark for the conversion of tetrazolium salts to formazan crystals by mitochondrial metabolism of viable cells. After incubation, formazan crystals were dissolved in DMSO and absorbance of each well were measured at 570 nm via microplate reader (Synergy™ HTX- BioTek, Winooski, VT, USA). Doxorubicin (10 nM, 1 µM and 4 µM) was used as positive control, whereas oleandrin (1 nM, 10 nM and 100 nM) was the second positive control as a potent cardenolide.
(§3) All compounds were dissolved in DMSO (Sigma Aldrich, St. Louis, MO, USA) and the final DMSO concentration applied to cells was 0.02% (v/v), which is non-toxic to cells. The IC50 values of the compounds were calculated by the normalization of optical densities (OD) to negative control DMSO (0.02%, v/v).

[2] = test system: PANC-1 human pancreatic cancer cell line; experiment: MTT cell viability assay, PANC-1; type: cell-based; settings: 48 h treatment, n = 3
Protocol: as §1, §2, §3

[3] = test system: HEK-293 human embryonic kidney cell line; experiment: MTT cell viability assay, HEK-293 (healthy); type: cell-based; settings: for IC50: Homo sapiens, HEK293, healthy cell line, 48 h treatment, MTT, n = 3
Protocol: as §1, §2, §3

[4] = test system: DU 145 human prostate cancer cell line; experiment: MTT cell viability assay, DU 145; type: cell-based; settings: 48 h treatment, n = 3
Protocol: as §1, §2, §3

[5] = test system: Mia PaCa-2 pancreatic cancer cell line; experiment: MTT cell viability assay, MIA PaCa-2; type: cell-based; settings: Homo sapiens, 48 h treatment, n = 3
Protocol: as §1, §2, §3

[6] = test system: MRC-5 human lung fibroblast cell line; experiment: MTT cell viability assay, MRC-5 (healthy); type: cell-based; settings: MRC5, 48 h treatment, n = 3
Protocol: as §1, §2, §3

[7] = test system: human nasopharynx carcinoma; design: method as in PMID 5014314; settings: cited from earlier work
[8] = test system: TK-10 (renal adenocarcinoma); design: method as in PMID 14531018; settings: cited from earlier work
HeLa cells [9] = test system: HeLa cells; design: method as in PMID 12054363; settings: homogeneous plate-reader assay; read-out: EC50 anticancer effect against HeLa cells; cited from earlier work
dengue virus = test system: dengue virus; design: method as in PMID 22155902; settings: immunofluorescence screen, hit criteria ≥40% inhibition; cited from earlier work
[10] = test system: A549, DU 145, PANC-1, MIA PaCa-2 cell lines; experiment: MTT cell viability assay, four cancer cell lines together; type: cell-based; settings: Homo sapiens; range over four cancer cell lines; read-out: IC50 values ranging over A549, DU 145, PANC-1, MIA PaCa-2 cell lines
Protocol: as §1
To see cytotoxic effects of the obtained metabolites, a standard MTT (3-(4,5-dimethylthiazol-2-yl)-2,5-diphenyltetrazolium bromide) cell viability assay was performed on human cancer cell lines PANC-1 (pancreatic, ATCC® CRL-1469™), MIA PaCa-2 (pancreatic, ATCC® CRL-1420™), DU 145 (prostate, ATCC® HTB-81™) and A549 (lung, ATCC® CCL-185™) and two healthy cell lines MRC-5 (lung, ATCC® CCL-171™) and HEK-293 (kidney, ATCC® CRL-1573™) according to manufacturer’s instructions (M2128, Sigma-Aldrich®). […] After incubation, formazan crystals were dissolved in DMSO and absorbance of each well were measured at 570 nm via microplate reader (Synergy™ HTX- BioTek, Winooski, VT, USA). […]
as §3

HeLa cells [11] = test system: HeLa cells; design: method as in PMID 5589524; settings: cited from earlier work
[12] = test system: MCF-7 (breast adenocarcinoma); design: method as in PMID 14531018; settings: cited from earlier work
UACC-62 (melanoma) = test system: UACC-62 (melanoma); design: method as in PMID 14531018; settings: cited from earlier work
[13] = test system: infectious virus production (COVID-19); design: method as in doi:10.1101/2020.07.15.203489; settings: in vitro, cited from earlier work

Structure (SMILES) | IC50 [1] [µM] | IC50 [2] [µM] | IC50 [3] [µM] | IC50 [4] [µM] | IC50 [5] [µM] | IC50 [6] [µM] | toxicity on healthy cell line HEK-293 ([3]; up to concentration of 10 µM) | ED50 in vitro inhibitory activity against human nasopharynx carcinoma [7] [µg/mL] | IC50 [8] [nM] | EC50 (HeLa cells [9]) [nM] | inhibition of dengue virus (dengue virus) [%] | IC50 [10] [nM] | growth inhibitory effect on HeLa cells (HeLa cells [11]) [µg/mL] | IC50 [12] [nM] | IC50 (UACC-62 (melanoma)) [nM] | reduction in infectious virus production ([13]; 0.05 µg/mL) [fold] | reduction in infectious virus production ([13]; 0.1 µg/mL) [fold]
C[C@]12CCC(=O)C[C@H]1CC(O)C1C2CC[C@]2(C)[C@@H](C3=CC(=O)OC3)[C@@H](O)C[C@]12O (stereo partly drawn) [Compound 1, 4-((5R,10S,13R,14S,16S,17R)-7,14,16-Trihydroxy-10,13-dimethyl-3-oxohexadecahydro-1H-cyclopenta[a]phenanthren-17-yl)furan-2(5H)-one] | > 10 | > 10 | > 10 | > 10 | > 10 | > 10 | – | – | – | – | – | – | – | – | – | – | –
C[C@]12CCC(=O)C[C@H]1CCC1C2CC[C@]2(C)[C@@H](C3=CC(=O)OC3)[C@@H](O)C[C@]12O (stereo partly drawn) [Compound 2, 4-((5R,10S,13R,14S,16S,17R)-14,16-Dihydroxy-10,13-dimethyl-3-oxohexadecahydro-1H-cyclopenta[a]phenanthren-17-yl)furan-2(5H)-one] | > 10 | > 10 | > 10 | > 10 | > 10 | > 10 | – | – | – | – | – | – | – | – | – | – | –
C[C@]12CCC(=O)C[C@H]1CC(O)C1C2CC(O)[C@]2(C)[C@@H](C3=CC(=O)OC3)[C@@H](O)C[C@]12O (stereo partly drawn) [Compound 3, 4-((5R,10S,13S,14S,16S,17R)-7,12,14,16-Tetrahydroxy-10,13-dimethyl-3-oxohexadecahydro-1H-cyclopenta[a]phenanthren-17-yl)furan-2(5H)-one] | > 10 | > 10 | > 10 | > 10 | > 10 | > 10 | – | – | – | – | – | – | – | – | – | – | –
COC1(OC)CC[C@]2(C)C3CC[C@]4(C)[C@@H](C5=CC(=O)OC5)[C@@H](O)C[C@]4(O)C3C(O)C[C@@H]2C1 (stereo partly drawn) [Compound 4, 4-((5R,10S,13R,14S,16S,17R)-7,14,16-Trihydroxy-3,3-dimethoxy-10,13-dimethylhexadecahydro-1H-cyclopenta[a]phenanthren-17-yl)furan-2(5H)-one] | > 10 | > 10 | > 10 | > 10 | > 10 | > 10 | – | – | – | – | – | – | – | – | – | – | –
C[C@]12CC[C@@H](O)C[C@H]1CCC1C2CC[C@]2(C)[C@@H](C3=CC(=O)OC3)[C@@H](O)C[C@]12O (stereo partly drawn) [Compound 5, 4-((3R,5R,10S,13R,14S,16S,17R)-3,14,16-Trihydroxy-10,13-dimethylhexadecahydro-1H-cyclopenta[a]phenanthren-17-yl)furan-2(5H)-one] | > 10 | > 10 | > 10 | > 10 | > 10 | > 10 | – | – | – | – | – | – | – | – | – | – | –
C[C@]12CC[C@@H](O)C[C@H]1CC(O)C1C2CC[C@]2(C)[C@@H](C3=CC(=O)OC3)[C@@H](O)C[C@]12O (stereo partly drawn) [Compound 6, 4-((3R,5S,10S,13R,14S,16S,17R)-3,7,14,16-Tetrahydroxy-10,13-dimethylhexadecahydro-1H-cyclopenta[a]phenanthren-17-yl)furan-2(5H)-one] | > 10 | > 10 | > 10 | > 10 | > 10 | > 10 | – | – | – | – | – | – | – | – | – | – | –
C[C@]12CCC(=O)C[C@H]1CCC1C2CC(O)[C@]2(C)[C@@H](C3=CC(=O)OC3)[C@@H](O)C[C@]12O (stereo partly drawn) [Compound 7, 4-((5R,10S,13S,14S,16S,17R)-12,14,16-Trihydroxy-10,13-dimethyl-3-oxohexadecahydro-1H-cyclopenta[a]phenanthren-17-yl)furan-2(5H)-one] | > 10 | 6.24 | > 10 | > 10 | > 10 | > 10 | – | – | – | – | – | – | – | – | – | – | –
C[C@]12CC[C@@H](O)C[C@H]1CCC1C2CC(O)[C@]2(C)[C@@H](C3=CC(=O)OC3)[C@@H](O)C[C@]12O (stereo partly drawn) [Compound 8, 4-((3R,5R,10S,13S,14S,16S,17R)-3,12,14,16-Tetrahydroxy-10,13-dimethylhexadecahydro-1H-cyclopenta[a]phenanthren-17-yl)furan-2(5H)-one] | 8.25 | 1.95 | > 10 | > 10 | 3.4 | 9.35 | without causing toxicity | – | – | – | – | – | – | – | – | – | –
COc1cccc2c1C(=O)c1c(O)c3c(c(O)c1C2=O)C[C@@](O)(C(=O)CO)C[C@@H]3O[C@H]1C[C@H](N)[C@H](O)[C@H](C)O1 [Doxorubicin, reference compound] | 0.62 | > 10 | 0.587 | 0.19 | 0.59 | 0.865 | – | – | – | – | – | – | – | – | – | – | –
C[C@]12CC[C@H](O)C[C@H]1CCC1C2CC[C@]2(C)[C@@H](C3=CC(=O)OC3)[C@@H](O)C[C@]12O (stereo partly drawn) [Gitoxigenin, 4-((3S,5R,10S,13R,14S,16S,17R)-3,14,16-Trihydroxy-10,13-dimethylhexadecahydro-1H-cyclopenta[a]phenanthren-17-yl) furan-2(5H)-one] | 2.19 | 1.53 | 7.6 | 4.08 | 3.1 | 0.815 | – | 2.3 (≈ 5.89 µM) | 415 ± 30 | 2100 | 49.01 | 1530 to 4080 | 2.25 | 1800 ± 320 | 2830 ± 170 | – | –
CO[C@H]1C[C@H](O[C@H]2CC[C@@]3(C)[C@H](CC[C@@H]4[C@@H]3CC[C@]3(C)[C@@H](C5=CC(=O)OC5)[C@@H](OC(C)=O)C[C@]43O)C2)O[C@@H](C)[C@@H]1O [Oleandrin, reference compound] | 0.0426 | 0.0387 | 0.073 | 0.021 | 0.035 | 0.0173 | – | – | – | – | – | – | – | – | – | 78 | 100
